Target: α1(A322D)β2γ2 GABAA receptor (α1 subunit) (Homo sapiens, UniProt P14867+P47870, P14867:A322D)
Test: whole-cell patch-clamp peak current at […] GABA, after SAHA treatment
Format: cell-based

α1(A322D)β2γ2 GABAA receptor (α1 subunit), sequence (P14867 28-456 A322D): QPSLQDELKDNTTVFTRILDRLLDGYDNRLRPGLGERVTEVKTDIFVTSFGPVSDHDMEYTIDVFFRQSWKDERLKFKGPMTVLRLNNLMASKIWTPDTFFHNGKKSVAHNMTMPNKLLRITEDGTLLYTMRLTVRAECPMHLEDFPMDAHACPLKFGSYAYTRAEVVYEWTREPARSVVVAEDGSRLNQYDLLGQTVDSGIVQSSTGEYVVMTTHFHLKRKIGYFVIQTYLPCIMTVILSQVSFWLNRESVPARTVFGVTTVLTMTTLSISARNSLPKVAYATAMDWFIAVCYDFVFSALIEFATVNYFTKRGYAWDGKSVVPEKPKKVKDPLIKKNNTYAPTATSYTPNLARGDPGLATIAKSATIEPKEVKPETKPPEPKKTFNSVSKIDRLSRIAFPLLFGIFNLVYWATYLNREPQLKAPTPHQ
α1(A322D)β2γ2 GABAA receptor (α1 subunit), sequence (P47870 26-512): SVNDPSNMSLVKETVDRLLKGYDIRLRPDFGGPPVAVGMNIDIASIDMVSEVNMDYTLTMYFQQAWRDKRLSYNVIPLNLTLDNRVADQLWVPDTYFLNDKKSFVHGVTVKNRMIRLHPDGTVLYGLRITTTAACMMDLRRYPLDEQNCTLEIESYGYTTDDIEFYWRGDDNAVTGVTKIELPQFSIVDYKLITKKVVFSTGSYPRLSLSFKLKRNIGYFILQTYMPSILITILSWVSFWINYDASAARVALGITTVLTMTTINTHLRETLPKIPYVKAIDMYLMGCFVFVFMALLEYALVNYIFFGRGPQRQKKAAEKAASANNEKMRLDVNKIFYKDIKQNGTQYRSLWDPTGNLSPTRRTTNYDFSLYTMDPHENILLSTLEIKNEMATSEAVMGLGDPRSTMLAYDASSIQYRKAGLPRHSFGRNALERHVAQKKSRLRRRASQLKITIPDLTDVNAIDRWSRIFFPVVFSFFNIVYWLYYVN
α1(A322D)β2γ2 GABAA receptor (α1 subunit), sequence (P18507 40-475 partner): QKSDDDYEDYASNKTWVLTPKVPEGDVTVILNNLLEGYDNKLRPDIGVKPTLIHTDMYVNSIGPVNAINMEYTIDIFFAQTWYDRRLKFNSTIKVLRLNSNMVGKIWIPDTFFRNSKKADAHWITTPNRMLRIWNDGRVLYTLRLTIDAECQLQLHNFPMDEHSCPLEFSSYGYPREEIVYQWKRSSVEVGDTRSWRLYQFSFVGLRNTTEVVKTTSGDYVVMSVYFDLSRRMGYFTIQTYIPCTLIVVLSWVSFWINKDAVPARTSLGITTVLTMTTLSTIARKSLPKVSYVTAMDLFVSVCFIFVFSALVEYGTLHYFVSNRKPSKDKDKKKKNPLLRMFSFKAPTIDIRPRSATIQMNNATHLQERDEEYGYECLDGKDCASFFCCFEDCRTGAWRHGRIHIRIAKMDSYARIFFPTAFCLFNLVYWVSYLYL

NCCCC(=O)O [GABA]
whole-cell patch-clamp peak current at 3 mM GABA, after SAHA treatment: 14 ± 3 pA

From publication PMC3872227 (Chemistry & biology, 2013)
